Some results are limits rather than exact numbers.

The assay relates to TFEB. In words: TFEB nuclear translocation assay, HeLa wt cells. It is filed as cell-based. The note with it: Homo sapiens, HeLa, 2 h, 2 hrs compound treatment, Table 1 does not say HeLa wt or TRPML1 KO. Put shortly: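 HeLa wt, 2 hr compound, 37° C; 4% PFA fix; anti-TFEB (rabbit, 1:200, overnight 4° C) + Alexa 488 secondary, Hoechst. Imaged ×20, 4 fields/well. Readout: nuclear/ring Alexa 488 intensity ratio; AC50.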
In turn, `Cc1ccc(S(=O)(=O)Nc2ccccc2N2CCC3(CC2)CN(C)c2cc(F)ccc23)cc1` [Compound A-245, N-(2-{6-fluoro-1-methyl-1,2-dihydrospiro[indole-3,4′-piperidin]-1′-yl}phenyl)-4-methylbenzene-1-sulfonamide] came in with an AC50 of no more than 2 µM. Regarding `CN1CC2(CCN(c3ccccc3NS(=O)(=O)c3ccc(S(=O)(=O)C(F)F)cc3)CC2)c2ccc(F)cc21` [Compound A-246, 4-difluoromethanesulfonyl-N-(2-{6-fluoro-1-methyl-1,2-dihydrospiro[indole-3,4′-piperidin]-1′-yl}phenyl)benzene-1-sulfonamide], the AC50 is no more than 2 µM. To `CN1CC2(CCN(c3c(NS(=O)(=O)c4ccc(S(=O)(=O)N(C)C)cc4)ccc4c3cnn4C)CC2)c2ccc(F)cc21` [Compound A-247, N4-(4-{6-fluoro-1-methyl-1,2-dihydrospiro[indole-3,4′-piperidin]-1′-yl}-1-methyl-1H-indazol-5-yl)-N1,N1-dimethylbenzene-1,4-disulfonamide] belongs no more than 2 µM; to `CN1CC2(CCN(c3ccccc3NS(=O)(=O)c3ccc(S(C)(=O)=O)cc3)CC2)c2ccc(F)cc21` [Compound A-251, N-(2-{6-fluoro-1-methyl-1,2-dihydrospiro[indole-3,4′-piperidin]-1′-yl}phenyl)-4-methanesulfonylbenzene-1-sulfonamide], no more than 2 µM; to `COc1ccc(S(=O)(=O)Nc2ccccc2N2CCC3(CC2)CN(C)c2cc(F)ccc23)cc1` [Compound A-252, N-(2-{6-fluoro-1-methyl-1,2-dihydrospiro[indole-3,4′-piperidin]-1′-yl}phenyl)-4-methoxybenzene-1-sulfonamide], no more than 2 µM.

Regarding `CN(C)S(=O)(=O)c1ccc(S(=O)(=O)Nc2ccccc2N2CCC3(CC2)COc2cc(F)ccc23)cc1` [Compound A-253, N4-(2-{6-fluoro-2H-spiro[1-benzofuran-3,4′-piperidin]-1′-yl}phenyl)-N1,N1-dimethylbenzene-1,4-disulfonamide], the concentration at half-maximal activity (AC50) is no more than 2 µM.

`CC(c1ccccc1N1CCC(c2c(F)cccc2F)CC1)S(=O)(=O)c1ccc(S(=O)(=O)N(C)C)cc1` (centres unmarked) [Compound A-254, 4-((1-(2-(4-(2,6-difluorophenyl)piperidin-1-yl)phenyl)ethyl)sulfonyl)-N,N-dimethylbenzenesulfonamide] showed an AC50 of no more than 2 µM.

In turn, `CN1CC2(CCN(c3ccccc3NS(=O)(=O)c3ccc(S(=N)(=O)N(C)C)cc3)CC2)c2ccc(F)cc21` (centres unmarked) [Compound A-257, 4-[(2-{6-fluoro-1-methyl-1,2-dihydrospiro[indole-3,4′-piperidin]-1′-yl}phenyl)sulfamoyl]-N,N-dimethylbenzene-1-sulfonoimidamide] returned an AC50 of no more than 2 µM. `CN(C)S(=O)(=O)c1ccc(S(=O)(=O)Nc2ccccc2N2CCC3(CC2)OCc2cc(F)ccc23)cc1` [Compound A-258, N4-(2-{5-fluoro-3H-spiro[2-benzofuran-1,4′-piperidin]-1′-yl}phenyl)-N1,N1-dimethylbenzene-1,4-disulfonamide] returned an AC50 of no more than 2 µM. The molecule `CN(C)S(=O)(=O)c1ccc(S(=O)(=O)Nc2ccccc2N2CCC(c3ccccc3C(=O)O)CC2)cc1` [Compound A-259, 2-(1-{2-[4-(dimethylsulfamoyl)benzenesulfonamido]phenyl}piperidin-4-yl)benzoic acid] displayed an AC50 of no less than 10 µM. `CN(C)S(=O)(=O)c1ccc(S(=O)(=O)Nc2ccccc2N2CCC(c3cccc(C(=O)O)c3)CC2)cc1` [Compound A-266, 3-(1-{2-[4-(dimethylsulfamoyl)benzenesulfonamido]phenyl}piperidin-4-yl)benzoic acid]: the AC50 was no less than 10 µM.

Turning to `CN(C)S(=O)(=O)c1ccc(S(=O)(=O)Nc2ccccc2N2CCC(c3ccc(C(=O)O)cc3)CC2)cc1` [Compound A-267, 4-(1-{2-[4-(dimethylsulfamoyl)benzenesulfonamido]phenyl}piperidin-4-yl)benzoic acid], the AC50 is no less than 10 µM. `CN1CC2(CCN(c3ccccc3NS(=O)(=O)c3ccc(S(=O)(=O)N(C)C)cc3)CC2)c2ncc(Cl)cc21` [Compound A-268, N4-(2-{6′-chloro-1′-methyl-1′,2′-dihydrospiro[piperidine-4,3′-pyrrolo[3,2-b]pyridin]-1-yl}phenyl)-N1,N1-dimethylbenzene-1,4-disulfonamide] registered an AC50 of no more than 2 µM. For the molecule `CN1CC2(CCN(c3ccccc3NS(=O)(=O)c3ccc(S(=O)(=O)N(C)C)cc3)CC2)C2NCCCC21` (centres unmarked) [Compound A-269, N1,N1-dimethyl-N4-(2-{1′-methyl-octahydrospiro[piperidine-4,3′-pyrrolo[3,2-b]pyridin]-1-yl}phenyl)benzene-1,4-disulfonamide], the AC50 is no less than 10 µM. Molecule `CN1CC2(CCN(c3ccccc3NS(=O)(=O)c3ccc(S(=O)(=O)N(C)C)cc3)CC2)c2ncccc21` [Compound A-271, N1,N1-dimethyl-N4-(2-{1′-methyl-1′,2′-dihydrospiro[piperidine-4,3′-pyrrolo(3,2-b]pyridin]-1-yl}phenyl)benzene-1,4-disulfonamide] returned an AC50 of no more than 2 µM. `CN(C)S(=O)(=O)c1ccc(S(=O)(=O)Nc2ccccc2N2CCC(c3cccc(-c4nn[nH]n4)c3)CC2)cc1` [Compound A-272, N1,N1-dimethyl-N4-(2-{4-[3-(2H-1,2,3,4-tetrazol-5-yl)phenyl]piperidin-1-yl}phenyl)benzene-1,4-disulfonamide] came in with an AC50 of no less than 10 µM. In the case of `CN(C)S(=O)(=O)c1ccc(S(=O)(=O)Nc2ccccc2N2CCC(c3ccc(-c4nnn[nH]4)cc3)CC2)cc1` [Compound A-273, N1,N1-dimethyl-N4-(2-{4-[4-(1H-1,2,3,4-tetrazol-5-yl)phenyl]piperidin-1-yl}phenyl)benzene-1,4-disulfonamide], the AC50 was no less than 10 µM. For the molecule `O=S(=O)(Nc1cccc(Cl)c1N1CCOCC1)c1ccc(S(=O)(=O)C(F)F)cc1` [Compound A-274, N-[3-chloro-2-(morpholin-4-yl)phenyl]-4-difluoromethanesulfonylbenzene-1-sulfonamide], the AC50 is no less than 10 µM. The molecule `CS(=O)(=O)c1ccc(S(=O)(=O)Nc2cccc(Cl)c2N2CCOCC2)cc1` [Compound A-275, N-[3-chloro-2-(morpholin-4-yl)phenyl]-4-methanesulfonylbenzene-1-sulfonamide] yielded an AC50 of no less than 10 µM. In turn, `CC(C)(C)S(=O)(=O)c1ccc(S(=O)(=O)Nc2cc(Cl)ccc2N2CCOCC2)cc1` [Compound A-276, N-[5-chloro-2-(morpholin-4-yl)phenyl]-4-(2-methylpropane-2-sulfonyl)benzene-1-sulfonamide] gave an AC50 of no less than 10 µM. The molecule `O=S(=O)(Nc1cc(Cl)ccc1N1CCOCC1)c1ccc(S(=O)(=O)C(F)F)cc1` [Compound A-277, N-[5-chloro-2-(morpholin-4-yl)phenyl]-4-difluoromethanesulfonylbenzene-1-sulfonamide] showed an AC50 of no less than 10 µM.

In turn, `CC(C)(C)S(=O)(=O)c1ccc(S(=O)(=O)Nc2cccc(Cl)c2N2CCOCC2)cc1` [Compound A-278, N-[3-chloro-2-(morpholin-4-yl)phenyl]-4-(2-methylpropane-2-sulfonyl)benzene-1-sulfonamide] displayed an AC50 of no less than 10 µM. `CN(C)S(=O)(=O)c1ccc(S(=O)(=O)Nc2ccccc2N2CCC(c3ccccc3-c3nnn[nH]3)CC2)cc1` [Compound A-280, N1,N1-dimethyl-N4-(2-{4-[2-(1H-1,2,3,4-tetrazol-5-yl)phenyl]piperidin-1-yl}phenyl)benzene-1,4-disulfonamide]: the AC50 was no less than 10 µM. `CN(C)C1CCCC12CCN(c1ccccc1NS(=O)(=O)c1ccc(S(=O)(=O)N(C)C)cc1)CC2` (centres unmarked) [Compound A-281, N4-{2-[1-(dimethylamino)-8-azaspiro[4.5]decan-8-yl]phenyl}-N1,N1-dimethylbenzene-1,4-disulfonamide] came in with a half-maximal activity concentration (AC50) of no less than 10 µM. Regarding `CN1C(=O)C2(CCN(c3ccccc3NS(=O)(=O)c3ccc(S(=O)(=O)N(C)C)cc3)CC2)c2cccnc21` [Compound A-282, N1,N1-dimethyl-N4-(2-{1′-methyl-2′-oxo-1′,2′-dihydrospiro[piperidine-4,3′-pyrrolo[2,3-b]pyridin]-1-yl}phenyl)benzene-1,4-disulfonamide], the AC50 lay within 2.01 to 8 µM. `CN(C)S(=O)(=O)c1ccc(S(=O)(=O)Nc2ccccc2N2CCN(c3ccc(Cl)cc3F)CC2=O)cc1` [Compound A-283, N4-{2-[4-(4-chloro-2-fluorophenyl)-2-oxopiperazin-1-yl]phenyl}-N1,N1-dimethylbenzene-1,4-disulfonamide] registered an AC50 of no less than 10 µM. To `CP(C)(=O)c1ccc(S(=O)(=O)Nc2cc(Cl)ccc2N2CCOCC2)cc1` [Compound A-284, N-[5-chloro-2-(morpholin-4-yl)phenyl]-4-(dimethylphosphoryl)benzene-1-sulfonamide] belongs no less than 10 µM. The molecule `CN(C)S(=O)(=O)c1ccc(S(=O)(=O)N(C)c2cc(Cl)ccc2N2CCOCC2)cc1` [Compound A-285, N1-[5-chloro-2-(morpholin-4-yl)phenyl]-N1,N4,N4-trimethylbenzene-1,4-disulfonamide] returned an AC50 of no less than 10 µM. `CN(C)S(=O)(=O)c1ccc(S(=O)(=O)N(C)c2cccc(Cl)c2N2CCOCC2)cc1` [Compound A-286, N1-[3-chloro-2-(morpholin-4-yl)phenyl]-N1,N4,N4-trimethylbenzene-1,4-disulfonamide] returned an AC50 of no less than 10 µM.

The molecule `CP(C)(=O)c1ccc(S(=O)(=O)Nc2cccc(Cl)c2N2CCOCC2)cc1` [Compound A-287, N-[3-chloro-2-(morpholin-4-yl)phenyl]-4-(dimethylphosphoryl)benzene-1-sulfonamide] showed an AC50 of no less than 10 µM.

As to `O=S(=O)(Nc1cccc(Cl)c1N1CCN(c2ccc(Cl)cc2F)CC1)c1ccc2c(c1)CCC2` [Compound A-288, N-{3-chloro-2-[4-(4-chloro-2-fluorophenyl)piperazin-1-yl]phenyl}-2,3-dihydro-1H-indene-5-sulfonamide], the AC50 is no more than 2 µM.

For the molecule `CCN1CCN(c2ccc(Cl)cc2NS(=O)(=O)c2ccc3c(c2)CCC3)CC1` [Compound A-289, N-[5-chloro-2-(4-ethylpiperazin-1-yl)phenyl]-2,3-dihydro-1H-indene-5-sulfonamide], the AC50 is no less than 10 µM.

For orientation: AC50 means the concentration giving half of the maximal activity seen. High values mean weaker potency, low ones greater potency.

(Values after patent US20230104936A1, “TRPML MODULATORS” (Casma Therapeutics, Inc., priority 2019, published 2023).)
